One test concerns the target T1, human TLR8 (Homo sapiens, UniProt Q9NR97).
T1 construct: host or cells: HEK-Blue cells
T1 sequence (Q9NR97 27-1041): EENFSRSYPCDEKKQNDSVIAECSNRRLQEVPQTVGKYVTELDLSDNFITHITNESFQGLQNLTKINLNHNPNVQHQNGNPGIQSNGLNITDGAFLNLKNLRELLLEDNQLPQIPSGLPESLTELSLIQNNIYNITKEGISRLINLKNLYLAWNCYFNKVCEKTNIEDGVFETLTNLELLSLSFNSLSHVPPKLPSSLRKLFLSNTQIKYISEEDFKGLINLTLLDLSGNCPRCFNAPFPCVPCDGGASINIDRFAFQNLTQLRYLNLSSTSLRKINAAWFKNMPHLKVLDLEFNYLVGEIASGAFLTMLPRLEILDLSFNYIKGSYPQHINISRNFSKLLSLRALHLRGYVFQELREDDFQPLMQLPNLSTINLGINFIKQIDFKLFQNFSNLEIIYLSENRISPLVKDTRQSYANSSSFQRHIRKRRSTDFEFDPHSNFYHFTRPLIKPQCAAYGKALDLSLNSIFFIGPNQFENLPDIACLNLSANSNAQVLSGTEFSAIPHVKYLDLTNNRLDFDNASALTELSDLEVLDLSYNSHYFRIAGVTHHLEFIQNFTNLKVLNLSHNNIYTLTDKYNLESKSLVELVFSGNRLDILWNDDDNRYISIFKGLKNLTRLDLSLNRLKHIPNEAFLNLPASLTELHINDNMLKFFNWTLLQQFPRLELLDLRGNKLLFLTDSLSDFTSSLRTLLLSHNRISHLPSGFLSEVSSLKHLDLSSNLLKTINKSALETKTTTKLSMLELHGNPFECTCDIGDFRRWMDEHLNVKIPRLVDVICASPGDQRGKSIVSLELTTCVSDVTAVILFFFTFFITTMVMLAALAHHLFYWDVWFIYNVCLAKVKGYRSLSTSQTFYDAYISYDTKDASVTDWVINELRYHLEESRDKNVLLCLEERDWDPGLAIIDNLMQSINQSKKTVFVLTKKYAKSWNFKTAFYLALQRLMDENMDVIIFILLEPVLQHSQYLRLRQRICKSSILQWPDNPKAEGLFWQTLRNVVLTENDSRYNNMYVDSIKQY
In words: TLR8 inhibition reporter assay (HEK-Blue cells, SEAP reporter, R848 stimulation). Format: cell-based. The note with it: HEK-Blue cells overexpressing human TLR8, R848 15.9 μM. The method, boiled down: (§1)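 HEK-Blue reporter cells (15,000/well TLR7, 20,000 TLR8) exposed to compound over 0.05 nM–50 μM, agonist-stimulated (R848 for TLR8, gardiquimod for TLR7), 22 h at 37 °C, 5% CO2. SEAP read with HEK-Blue Detection; % inhibition relative to agonist-plus-DMSO and known-inhibitor controls.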
A general note: Reporter assays use an easily measured gene product as a stand-in for the process of interest.

For a further test, the target named is T2, human TLR7 (Homo sapiens, UniProt Q9NYK1).
T2 construct: host or cells: HEK-Blue cells
T2 sequence (Q9NYK1 27-1049): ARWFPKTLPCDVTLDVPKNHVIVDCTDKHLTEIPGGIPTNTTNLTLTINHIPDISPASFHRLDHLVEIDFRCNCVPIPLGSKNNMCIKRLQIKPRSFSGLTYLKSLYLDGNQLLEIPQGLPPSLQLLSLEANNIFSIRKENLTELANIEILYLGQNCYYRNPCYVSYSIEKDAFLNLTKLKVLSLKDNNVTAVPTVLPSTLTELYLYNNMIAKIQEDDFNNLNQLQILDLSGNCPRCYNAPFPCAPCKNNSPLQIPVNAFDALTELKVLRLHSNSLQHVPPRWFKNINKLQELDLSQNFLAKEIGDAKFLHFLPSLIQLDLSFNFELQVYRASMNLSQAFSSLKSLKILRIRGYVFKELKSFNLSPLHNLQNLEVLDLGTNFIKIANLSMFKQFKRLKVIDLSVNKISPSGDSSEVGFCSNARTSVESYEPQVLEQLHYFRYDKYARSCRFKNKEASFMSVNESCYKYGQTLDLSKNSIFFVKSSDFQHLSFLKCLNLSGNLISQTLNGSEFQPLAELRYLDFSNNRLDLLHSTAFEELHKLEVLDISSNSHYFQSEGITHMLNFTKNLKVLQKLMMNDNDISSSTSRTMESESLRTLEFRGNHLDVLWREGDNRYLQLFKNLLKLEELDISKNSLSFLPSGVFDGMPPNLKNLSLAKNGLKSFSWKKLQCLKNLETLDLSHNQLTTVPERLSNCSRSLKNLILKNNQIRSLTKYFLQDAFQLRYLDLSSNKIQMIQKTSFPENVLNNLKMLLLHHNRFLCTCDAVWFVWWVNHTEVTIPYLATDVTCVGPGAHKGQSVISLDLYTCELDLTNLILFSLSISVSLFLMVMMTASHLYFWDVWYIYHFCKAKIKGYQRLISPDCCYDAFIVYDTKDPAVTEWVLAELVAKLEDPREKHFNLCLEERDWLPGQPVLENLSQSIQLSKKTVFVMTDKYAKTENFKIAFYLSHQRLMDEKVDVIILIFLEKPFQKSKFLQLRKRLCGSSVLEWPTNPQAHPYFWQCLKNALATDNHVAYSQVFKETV
The test is described as follows: TLR7 inhibition reporter assay (HEK-Blue cells, SEAP reporter, gardiquimod stimulation). Conditions: HEK-Blue cells overexpressing human TLR7, gardiquimod 7.5 μM. Format: cell-based. The procedure, abridged: as §1

For the compound `CCc1c(-c2ccc(OC)c(OC)c2)[nH]c2ccc(C3CCN(C(=O)CNC4CCC(N(C)C)CC4)CC3)cc12` (centres unmarked) [Example 162, 1-(4-(2-(3,4-dimethoxyphenyl)-3-ethyl-1H-indol-5-yl)piperidin-1-yl)-2-((4-(dimethylamino)cyclohexyl)amino)ethan-1-one], the IC50 (as a rule, the point on the concentration scale where inhibition reaches its midpoint) against human TLR8 was found to be 23 nM; at human TLR7, 88 nM.

Turning to `CCc1c(-c2ccc(OC)c(OC)c2)[nH]c2ccc(C3CCN(C4CCN(Cc5cnc(C)o5)CC4)CC3)cc12` [Example 124, 5-((4-(2-(3,4-dimethoxyphenyl)-3-ethyl-1H-indol-5-yl)-[1,4′-bipiperidin]-1′-yl)methyl)-2-methyloxazole], the IC50 at human TLR8 stood at 248 nM; on human TLR7, 1870 nM.

Take `CCc1c(-c2ccc(OC)c(OC)c2)[nH]c2ccc(C3CCN(C4CCN(C5CCCC5)CC4)CC3)cc12` [Example 152, 5-(1′-cyclopentyl-[1,4′-bipiperidin]-4-yl)-2-(3,4-dimethoxyphenyl)-3-ethyl-1H-indole]: the half-inhibitory concentration (IC50) came to 33 nM at human TLR8 and 590 nM against human TLR7.

As for `CCc1c(-c2ccc(OC)c(OC)c2)[nH]c2ccc(C3CCN(C(=O)CN(C)C)CC3)cc12` [Example 181, 1-(4-(2-(3,4-dimethoxyphenyl)-3-ethyl-1H-indol-5-yl)piperidin-1-yl)-2-(dimethylamino) ethanone], the figures for the IC50 against human TLR8 and against human TLR7 were 66 nM and 52 nM, respectively.

`CCc1c(-c2ccc(OC)c(OC)c2)[nH]c2ccc(C3CCN(C4CCN(Cc5ccc(-c6ccccc6)s5)CC4)CC3)cc12` [Example 141, 2-(3,4-dimethoxyphenyl)-3-ethyl-5-(1′-((5-phenylthiophen-2-yl)methyl)-[1,4′-bipiperidin]-4-yl)-1H-indole]: the IC50 was 9780 nM against human TLR8 and 3740 nM against human TLR7.

As to `COc1ccc(-c2[nH]c3ccc(C4CCN(C5CCN(CC6CC6)CC5)CC4)cc3c2C(C)C)cc1OC` [Example 198, 5-(1′-(cyclopropylmethyl)-[1,4′-bipiperidin]-4-yl)-2-(3,4-dimethoxyphenyl)-3-isopropyl-1H-indole di trifluoroacetic acid], the IC50 against human TLR8 turned out to be 22 nM; against human TLR7, 379 nM.

As for `CCc1c(-c2ccc(OC)c(OC)c2)[nH]c2ccc(C3CCN(C4CCN(C(C)C)CC4)CC3)cc12` [Example 151, 2-(3,4-dimethoxyphenyl)-3-ethyl-5-(1′-isopropyl-[1,4′-bipiperidin]-4-yl)-1H-indole], the IC50 was found to be 403 nM against human TLR8 and 507 nM at human TLR7.

`COc1ccc(-c2[nH]c3ccc(C4CCN(C(=O)CNCC#N)CC4)cc3c2C(C)C)cc1OC` [Example 214, 2-((2-(4-(2-(3,4-dimethoxyphenyl)-3-isopropyl-1H-indol-5-yl)piperidin-1-yl)-2-oxoethyl)amino) acetonitrile]: the IC50 against human TLR8 is 256 nM; against human TLR7, 21 nM.

On to `CCc1c(-c2ccc(OC)c(OC)c2)[nH]c2ccc(C3CCN(C(=O)CNCC#N)CC3)cc12` [Example 161, 2-((2-(4-(2-(3,4-dimethoxyphenyl)-3-ethyl-1H-indol-5-yl)piperidin-1-yl)-2-oxoethyl)amino)acetonitrile], for which the IC50 on human TLR8 is 332 nM; on human TLR7, 1210 nM.

As for `CCc1c(-c2ccc(OC)c(OC)c2)[nH]c2ccc(C3CCN(C(=O)CN4CCCC(C(=O)O)C4)CC3)cc12` (racemic) [Example 176, 1-(2-(4-(2-(3,4-dimethoxyphenyl)-3-ethyl-1H-indol-5-yl)piperidin-1-yl)-2-oxoethyl)piperidine-3-carboxylic acid], the IC50 against human TLR8 came to 6550 nM; against human TLR7, 8920 nM.

For the compound `CCc1c(-c2ccc(OC)c(OC)c2)[nH]c2ccc(C3CCN(C(=O)CN4CCCC(C(=O)N(CC)CC)C4)CC3)cc12` (single isomer, unassigned) [Example 179, 1-(2-(4-(2-(3,4-dimethoxyphenyl)-3-ethyl-1H-indol-5-yl)piperidin-1-yl)-2-oxoethyl)-N,N-diethylpiperidine-3-carboxamide], the IC50 at human TLR8 came out at 68 nM; at human TLR7, 280 nM.

For `COc1ccc(-c2[nH]c3ccc(C4CCN(C5CCN(Cc6ccccc6)CC5)CC4)cc3c2C)cc1OC` [Example 9, 5-(1′-benzyl-[1,4′-bipiperidin]-4-yl)-2-(3,4-dimethoxyphenyl)-3-methyl-1H-indole], the figures for the IC50 at human TLR8 and against human TLR7 were 457 nM and 1550 nM, respectively.

For the compound `COc1ccc(-c2[nH]c3ccc(C4CCN(C(=O)CN(C)C)CC4)cc3c2C(C)C)cc1OC` [Example 209, 1-(4-(2-(3,4-dimethoxyphenyl)-3-isopropyl-1H-indol-5-yl)piperidin-1-yl)-2-(dimethylamino)ethan-1-one], the half-maximal inhibitory concentration (IC50) at human TLR8 was 24 nM; against human TLR7 it was 12 nM.

Take `COc1ccc(-c2[nH]c3ccc(C4CCN(C(=O)CNCC(C)(C)CO)CC4)cc3c2C(C)C)cc1OC` [Example 219, 1-(4-(2-(3,4-dimethoxyphenyl)-3-isopropyl-1H-indol-5-yl)piperidin-1-yl)-2-((3-hydroxy-2,2-dimethylpropyl)amino)ethan-1-one]: the IC50 on human TLR8 is 39 nM; against human TLR7 it was 33 nM.

As to `CCc1c(-c2ccc(OC)c(OC)c2)[nH]c2ccc(C3CCN(C(=O)C4CCNCC4)CC3)cc12` [Example 186, (4-(2-(3,4-dimethoxyphenyl)-3-ethyl-1H-indol-5-yl)piperidin-1-yl)(piperidin-4-yl) methanone], the IC50 against human TLR8 turned out to be 132 nM; at human TLR7, 96 nM.

As for `CCc1c(-c2ccc(OC)c(OC)c2)[nH]c2c(F)cc(C3CCN(CCNC)CC3)cc12` [Example 191, 2-(4-(2-(3,4-dimethoxyphenyl)-3-ethyl-7-fluoro-1H-indol-5-yl)piperidin-1-yl)-N-methylethan-1-amine], the IC50 on human TLR8 worked out at 110 nM; on human TLR7 it was 1190 nM.

In the case of `CCc1c(-c2ccc(OC)c(OC)c2)[nH]c2ccc(C3CCN(C(=O)C4CCCNC4)CC3)cc12` (centres unmarked) [Example 184, (4-(2-(3,4-dimethoxyphenyl)-3-ethyl-1H-indol-5-yl)piperidin-1-yl)(piperidin-3-yl)methanone], the figures for the IC50 against human TLR8 and against human TLR7 were 136 nM and 191 nM, respectively.

Turning to `COc1ccc(-c2[nH]c3ccc(C4CCN(C(=O)CN5CCC(N6CCCCC6)CC5)CC4)cc3c2C(C)C)cc1OC` [Example 211, 2-([1,4′-bipiperidin]-1′-yl)-1-(4-(2-(3,4-dimethoxyphenyl)-3-isopropyl-1H-indol-5-yl)piperidin-1-yl)ethan-1-one], the IC50 against human TLR8 is 25 nM; at human TLR7, 14 nM.

As for `CNCCN1CCC(c2cc3c(C(C)C)c(-c4ccc(OC)c(OC)c4)[nH]c3cc2F)CC1` [Example 208, 2-(4-(2-(3,4-dimethoxyphenyl)-6-fluoro-3-isopropyl-1H-indol-5-yl)piperidin-1-yl)-N-methylethan-1-amine], the figures for the half-maximal inhibitory concentration (IC50) against human TLR8 and against human TLR7 were 35 nM and 9 nM, respectively.
